For data set [1] the following is noted: conventional acedan; cited from earlier work.
A short description of data set [2]: Absorption properties of two-photon absorbing fluorophores. The format is physicochemical. The conditions noted are these: 10 μM in ethanol solution (1%-DMSO included). The method, then: More specifically, in order to determine the absorption properties of two-photon absorbing fluorophores, the inventors of the present invention filled quartz cells (114F-QS, Hellma Analytics) having a path length of 1 cm with an ethanol solution (1%-DMSO included) which included the compounds 4a to 7a (R1=R2=Me) having a concentration of 10 μM to measure absorption spectra. […] The absorption spectra were measured using an HP 8453 UV/Vis spectrophotometer.
Thereafter, a molar extinction coefficient (ε(Lmol^−1 cm^−1)) in a maximum absorption wavelength was calculated with respect to an ethanol solution (1%-DMSO included) which included the compounds 4a to 8a (R1=R2=Me) having a concentration of 10 μM, and the result is shown in FIG. 6. Referring to FIG. 6, it may be determined that the molar extinction coefficients (ε>11,500) for the two-photon absorbing fluorophores (particularly, compounds 4a to 8a (R1=R2=Me)) according to the embodiment of the present invention were larger than that (ε=10,700) of acedan known as a conventional two-photon absorbing fluorophore.

Data set [3] can be described thus: Fluorescent properties (emission spectra, fluorescence quantum yield). In kind it is physicochemical. How it is done:
More specifically, in order to determine the fluorescent properties of two-photon absorbing fluorophores, the inventors of the present invention filled quartz cells having a path length of 1 cm with an ethanol solution (1%-DMSO included) which included the compounds 4a to 7a (R1=R2=Me) having a concentration of 10 μM to measure fluorescence spectra (fluorescence spectra were measured using a photon technical international fluorescence system). The results thereof with normalized fluorescence as a y-axis and light wavelength as an x-axis are shown in FIG. 1(B) and with fluorescence intensity as a y-axis and light wavelength as an x-axis are shown in FIG. 7.
Quartz cells having a path length of 1 cm were filled with a dichloromethane, acetonitrile, ethanol (1%-DMSO included) and PBS buffer solution (10 mM, pH 7.4, 0.1%-DMSO included) which included compound 4a (R1=R2=Me) having a concentration of 1 μM to measure fluorescence spectra.
Further, the fluorescence quantum yield was measured with respect to an ethanol solution including the compounds 4a to 8a (R1=R2=Me) having a concentration of 10 μM, and the result is shown in FIG. 6. Acedan which is mainly used was used as a comparative compound (fluorescence quantum yield, ΦF=0.52, measured in ethanol solution).

The next data set has as its system SHSY5Y cells. As to the kind of experiment: MTT cytotoxicity. The format is cell-based. The conditions noted are these: 1 hour, described as low cytotoxicity. The method, then: In order to determine the cytotoxicity of cells treated with the compound 4a (R1=R2=Me) and the compound 8a (R1=R2=Me), the metabolic capability of a formazan of SHSY5Y cells with respect to […] (MTT) was evaluated.
More specifically, the cells (100 μL/well) were prepared with the density of about 5×10^3 cells in each well on a 96-well plate. The cells were treated with the compound 4a (R1=R2=Me) and the compound 8a (R1=R2=Me) each having concentrations of 1, 20 and 50 μM, was incubated for 1 hour, were cleaned using a PBS buffer solution, and 25 μL of a MTT solution (5 mg/mL) was added to each well. After the cells were incubated at 37° C. for 2 hours, the media was removed, and a formazan crystal was dissolved in DMSO to measure absorbance using a plate reader. […] Accordingly, it may be determined that the cytotoxicity of the compound 4a (R1=R2=Me) and the compound 8a (R1=R2=Me) was low to be suitable for obtaining a two-photon microscope image in tissue and an animal model.

Another data set deals with T1, amyloid beta 42 (Aβ 42) (Homo sapiens, UniProt P05067).
T1 construct: according to the presence of amyloid beta 42 (Aβ 42)
As to the kind of experiment: Fluorescence spectra according to the presence of amyloid beta 42 and BSA. The note with it: 10 μM compound. The format is binding. How it is done:
Quartz cells having a path length of 1 cm were filled with a PBS buffer solution (10 mM, pH 7.4, 0.1%-DMSO included) or an artificial cerebrospinal fluid (NaCl (124 mM), KCl (3 mM), NaH2PO4 (1.25 mM), MgCl2 (1 mM), NaHCO3 (36 mM), D-gluocose (10 mM), CaCl2(2 mM), 95%-O2, 5%-CO2 (by bubbler), aCSF and 1%-DMSO included) which included the compound 8a (R1=R2=Me) having a concentration of 10 μM to measure fluorescence spectra according to the presence of amyloid beta 42 (Aβ 42) and bovine serum albumin (BSA, 20 μg/mL), and the result is shown in FIG. 4. Referring to FIG. 4, it may be determined that the fluorescence intensity of the compound 8a (R1=R2=Me) was low when an amyloid beta plaque was absent, and the fluorescence intensity of the compound 8a (R1=R2=Me) increased when an amyloid beta plaque was present. […] In order to determine the fluorescent properties (y-axis) of the compound 8a (R1=R2=Me) according to the concentration of an amyloid beta plaque (x-axis), quartz cells having a path length of 1 cm were filled with a PBS buffer solution (1%-DMSO included) which included the compound 8a (R1=R2=Me) having a concentration of 10 μM and an amyloid beta plaque (0-50 μM) to measure fluorescence spectra, and the result is shown in FIG. 14.

Another data set concerns the target T2, amyloid beta plaque (Homo sapiens, UniProt P05067).
T2 construct: tissue The Jackson Laboratory stock no; 006554; host or cells: brain of living 5XFAD (Tg6799) mice, 13 months old, imaged through a cranial window
The data set can be described thus: In vivo two-photon microscope imaging of amyloid beta plaque in an Alzheimer's disease animal model. Details: species or system 5XFAD mice. How it is done: In order to observe the two-photon microscope image of tissue of mice treated with the compound 8a (R1=R2=Me), 5XFAD mice (13-months-old, The Jackson Laboratory, Bar Harbor, Me., USA; stock no. 006554, Tg6799) were used. An amyloid beta plaque is shown as a typical characteristic of Alzheimer's disease.
All animal experiments were performed after the approval from an animal testing ethics committee. In an open-skull craniotomy surgery, imaging was performed after treatment with the compound 8a (R1=R2=Me) and MeO-X04 which is a well-known amyloid beta plaque fluorophore. The mice were fixed on a stereotactic heating surface using Zoletil 50 (Virbac; intramuscular injection, 0.03 mL) as an anesthetic agent (Seoul, Republic of Korea, 37° C.). After a scalp and periosteum were removed, a hole having a diameter of 3 mm was formed at a distance 1 mm from the bregma and 1 mm from the sagittal suture of a skull, a bone was removed, and then a round coverslip was adhered thereto using Loctite 454. The exposed portion of the skull was covered with a dental acrylic, and dexamethasone (0.2 mg/kg) and carprofen (5 mg/kg) which are anti-inflammatory drugs were used before and after the surgery.
A product manufactured by Carl Zeiss Microscopy GmbH (Oberkochen, Germany; model no. LSM 7 MP two-photon laser scanning microscope system) was used as a two-photon microscope. […] Further, the photo-bleaching process images and the relative fluorescence intensity in […] images before and after irradiation with a light source with respect to the compound 8a (R1=R2=Me) and a complex compound of an amyloid beta plaque are shown in FIG. 18. Referring to FIG. 18, it may be determined that the fluorescence intensity of the compound 8a (R1=R2=Me) decreased about 40% when irradiated with a two-photon light source for 35 minutes.

Data set [4] can be described thus: Fluorescence intensity according to pH. The format is physicochemical. The note with it: 10 μM, aqueous solution (1%-DMSO), pH 4 to 10, excitation 500 nm. How it is done:
In order to determine the fluorescent properties (y-axis) of the compound 8a (R1=R2=Me) according to the pH (x-axis), quartz cells having a path length of 1 cm were filled with an aqueous solution (1%-DMSO included) which has a pH in the range of 4 to 10 and included the compound 8a (R1=R2=Me) having a concentration of 10 μM to measure the fluorescence spectrum, and the result is shown in FIG. 15.

Data set [5] can be described thus: Solubility in PBS buffer solution from absorption spectra. In kind it is physicochemical. The conditions noted are these: PBS 10 mM, pH 7.4, DMSO of less than 1%; concentrations of 1, 5 and 10 μM. The method, then:
Quartz cells having a path length of 1 cm were filled with a PBS buffer solution (10 mM, pH 7.4, DMSO of less than 1% included) which included the compounds 4a to 7a (R1=R2=Me) each having concentrations of 1, 2, 5 and 10 μM to measure absorption spectra.
Quartz cells having a path length of 1 cm were filled with a PBS buffer solution (10 mM, pH 7.4, DMSO of less than 1% included) which included the compound 8a (R1=R2=Me) each having concentrations of 1, 5, 10, 15 and 20 μM to measure absorption spectra.

T2 sequence (P05067 672-713 limits assumed): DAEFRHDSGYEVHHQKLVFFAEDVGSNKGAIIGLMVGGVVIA
T1 sequence (P05067 672-713 limits assumed): as above

As for `CC(=O)c1ccc2cc(N(C)C)ccc2c1` [acedan, 1-(6-dimethylaminonaphthalene-2-yl) ethanone], the “two-photon absorption efficiency value” in data set [1] is about 100 GM. The “molar extinction coefficient (ε) in a maximum absorption wavelength” value in data set [2] is 10,700 Lmol^−1 cm^−1. Besides, the “fluorescence quantum yield ΦF” value in data set [3] (measured in ethanol solution, comparative compound) is on record as 0.52.

For `CN(C)c1ccc2cc3c(cc2c1)OC1CCCC(=O)C1=C3` (stereo not shown) [compound 4a, 8-(dimethylamino)-2,3,4a-tetrahydro-1H-benzo[b]xanthene-1-one], the “cytotoxicity (apoptosis)” value with SHSY5Y cells (1 μM and 20 μM) worked out at 20%. In addition, the “maximum emission wavelength (λem) compared with acedan” value in data set [3] (1 μM in dichloromethane, acetonitrile, ethanol and PBS buffer solution) was “longer than that of conventional acedan”.

`CN(C)c1ccc2cc3c(cc2c1)OCC(C=C(C#N)C#N)=C3` [compound 8a, 2-(((8-dimethylamino)-2H-benzo[g]chromene-3-yl)methylene)malononitrile]: the “fluorescence intensity when an amyloid beta plaque was present” value on amyloid beta 42 (Aβ 42) (Aβ42 20 μM, PBS (pH 7.4) or aCSF, low when plaque absent) is “increased”. For the same compound, the “selective detection of amyloid beta plaque” value on amyloid beta 42 (Aβ 42) (Aβ42 versus BSA 20 μg/mL, PBS or aCSF) is reported as “selectively detected an amyloid beta plaque”. Moreover, on amyloid beta plaque (30 mg/kg intraperitoneal, 13-month-old 5XFAD mice, frontal cortex, 1,000 nm, depth to 300 μm), the “visualization of amyloid beta plaque in animal model with Alzheimer's disease” value is reported as “selectively visualize an amyloid beta plaque”. The “conformity of image with MeO-X04 image” value at amyloid beta plaque (30 mg/kg intraperitoneal, 24 hours before imaging, 1,000 nm, MeO-X04 10 mg/kg, 780 nm) is listed as “significantly high”. Further, the “decrease of fluorescence intensity (photo-bleaching)” value at amyloid beta plaque (complex with amyloid beta plaque, tissue depth 50 μm, two-photon light source for 35 minutes) is recorded as “about 40%”. In data set [4], the “fluorescence intensity according to pH” value is reported as “low regardless of pH”. Also, the “solubility in a PBS buffer solution” value in data set [5] is listed as “sufficient solubility”. Further, in the data set on SHSY5Y cells (1 to 50 μM), the “cytotoxicity (apoptosis)” value is reported as 20%.

Source of the values: patent publication US9658235B2, “Pi-extended acedan derivatives, their application for two-photon microscopy imaging, and their application for two-photon microscopy imaging of amyloid-beta plaque in an alzheimer's disease animal model” (POSTECH ACADEMY-INDUSTRY FOUNDATION, priority 2015, dated 2017).
